Columns and labels:
LQBG8 [1] = system: T1, LQBG8; assay: p-nitrophenol release at […] nm; assay type: biochemical; settings: optimal temperature (70 °C); pH not stated for this assay
T1 construct: differs from Tepidiforma bonchosmolovskayae WP158066159.1 only at residue 48 (Ser in LQBG8, Gly there)

LQBG8 [2] = system: T1, LQBG8; assay: glucose release (glucose oxidase-peroxidase), Lineweaver-Burk; assay type: biochemical; settings: 70 °C, pH 5.6; cellobiose 0-20 mg/mL (Km lies above the tested range)

Row | Compound | Km (LQBG8 [1]) [µM] | Km (LQBG8 [2]) [mg/mL]
1 | O=[N+]([O-])c1ccc(O[C@@H]2O[C@H](CO)[C@@H](O)[C@H](O)[C@H]2O)cc1 [p-nitrophenyl-β-D-glucopyranoside] | 260 ± 10 | 
2 | OC[C@H]1O[C@@H](O[C@H]2[C@H](O)[C@@H](O)C(O)O[C@@H]2CO)[C@H](O)[C@@H](O)[C@@H]1O (some centres unmarked) [cellobiose] |  | 28 ± 1.9

— article PMC10764553, “Characterization of a thermophilic and glucose-tolerant GH1 β-glucosidase from hot springs and its prospective application in corn stover degradation” (Frontiers in Microbiology, 2023)
